# Laboratory results reported in patent US6514946B1, “Macrolide antibiotics and treatment and prophylaxis of pasteurellosis using the same” (Zaidan Hojin Biseibutsu Kagaku Kenkyu Kai, priority 1999, dated 2003).
# Legend:
# [1] = tested on: bovine bacterial pneumonia (Mycoplasma, Ureaplasma and Pasteurella); experiment: Clinical test against bovine bacterial pneumonia; format: in vivo, cattle; parameters: Average clinical score: scale not given here
# Source text: Test 5: Clinical Test Against Bovine Bacterial Pneumonia
# In this test, each drug was subcutaneously administered to cattle suffering from bacterial pneumonia (infectious diseases with Mycoplasma, Ureaplasma and Pasteurella), respectively, and the clinical effect of P-MT was compared with those of tilmicosin and C-9.
# Tests are made on 17 case of one to two-month-old Holstein cattle (weight 56 to 101 kg) suffering from bacterial pneumonia caused by single or mixed infection of Pasteurella, Mycoplasma, Ureaplasma and Haemophilus (6 animals for each of P-MT and C-9 and 5 animals for tilmicosin). The drug was subcutaneously administered to the animals once a day in an amount of 10 mg/kg.
# Three calves showing a similar degree of symptoms at the start of the test were arranged in one group. Each subject of the same group was respectively tested with one of the above three compounds. Ailing calves were successively grouped when being available.
# Clinical findings, based on the daily observation from the time of the administration through the 5th day of the trial, were scored on each item according to the criteria in the table below. The clinical efficacy of the compounds was judged on the 5th day.
# As to judgment based on the clinical symptoms, cases which could be judged among each group were classified into remarkably effective (85 to 100), effective (70 to under 85), a little effective (50 to under 70) and infective (under 50) according to the following improvement rate by clinical scores, and after summing up, the following effective rate was calculated, the difference in the effective rate among the groups was determined using a statistical method, and thus effectivity was judged. [formula]
# P. multocida = experiment: Bacteria separation test from nasal cavity swab; format: in vivo, cattle
# M. bovis = format: in vivo, cattle; settings: nasal cavity swab, before administration (baseline)
# Ureaplasma = experiment: Bacteria separation test from nasal cavity swab; format: in vivo, cattle
# [2] = tested on: Salmonella enteritidis 1891; experiment: Minimum inhibition concentration (MIC), agar double dilution method; format: cell-based; settings: Mueller hinton agar
# Procedure: (§1) Test 1; Minimum Inhibition Concentration (MIC)
# (§2) MIC was measured, based on the standard method of Japan Society of Chemotherapy, on a BHI agar medium (Brain heart-infusion agar, made by Difco Laboratories Inc.(USA)) with respect to Pasteurella and on a Mueller hinton agar medium (Mueller hinton agar, made by Difco, Laboratories Inc.(USA)) with respect to the other test bacteria in both cases according to the double dilution method.
# [3] = tested on: Bacillus subtilis NRRL B-558; experiment: as above; format: cell-based; settings: Bacillus subtilis NRRL B-558; Mueller hinton agar
# Procedure: as §1, §2
# [4] = tested on: Klebsiella pneumoniae PCI602; experiment: as above; format: cell-based; settings: Mueller hinton agar
# Procedure: as §1, §2
# Escherichia coli NIHJ = experiment: as above; format: cell-based; settings: Mueller hinton agar
# Procedure: as §1, §2
# [5] = tested on: Enterobacter aerogenes ATCC13048; experiment: as above; format: cell-based; settings: Mueller hinton agar
# Procedure: as §1, §2
# [6] = tested on: Micrococcus luteus PCI1001; experiment: as above; format: cell-based; settings: Mueller hinton agar
# Procedure: as §1, §2
# [7] = tested on: Shigella dysenteriae JS11910; experiment: as above; format: cell-based; settings: Shigella dysenteriae JS11910; Mueller hinton agar
# Procedure: as §1, §2
# [8] = tested on: Staphylococcus aureus 193; experiment: as above; format: cell-based; settings: Mueller hinton agar
# Procedure: as §1, §2
# [9] = tested on: Pasteurella haemolytica BBPO101 N791; experiment: as above; format: cell-based; settings: Pasteurella haemolytica BBPO101 N791, strain from cattle; BHI agar
# Procedure: as §1, §2
# Serratia marcescens = experiment: as above; format: cell-based; settings: Mueller hinton agar
# Procedure: as §1, §2
# [10] = tested on: P. haemolytica 63-39 intraperitoneally infected mice; experiment: Antiinfective test on infected mice
# [11] = tested on: S. aureus Smith (virulent strain); experiment: microbe, parasite or virus in culture; format: cell-based, Staphylococcus aureus; settings: S. aureus Smith (virulent strain); Mueller hinton agar
# Procedure: as §1, §2
# S. aureus FDA209P = experiment: Minimum inhibition concentration (MIC), agar double dilution method; format: cell-based, Staphylococcus aureus; settings: Mueller hinton agar
# Procedure: as §1, §2
# [12] = tested on: Past. multocida BSPO302 No. 6; experiment: as above; format: cell-based, Pasteurella multocida; settings: Past. multocida BSPO302 No. 6, strain from a pig; BHI agar
# Procedure: as §1, §2
# [13] = tested on: Past. multocida BOPO305 M-17; experiment: as above; format: cell-based, Pasteurella multocida; settings: Past. multocida BOPO305 M-17, strain from a sheep; BHI agar
# Procedure: as §1, §2
# [14] = tested on: Past haemolytica BAPO103 S801; experiment: as above; format: cell-based, Pasteurella haemolytica; settings: Past haemolytica BAPO103 S801, strain from poultry; BHI agar
# Procedure: as §1, §2
# [15] = tested on: Past haemolytica BBPO102 N811; experiment: as above; format: cell-based, Pasteurella haemolytica; settings: Past haemolytica BBPO102 N811, strain from cattle; BHI agar
# Procedure: as §1, §2
# P. haemolytica = experiment: Bacteria separation test from nasal cavity swab; format: in vivo, cattle
# P. haemolytica 63-39 = experiment: Sensitivity (MIC), agar plate dilution method; settings: P. haemolytica 63-39; agar plate dilution, 10^6 CFU/ml
# E. coli K-12 R-5 = experiment: Minimum inhibition concentration (MIC), agar double dilution method; format: cell-based, Escherichia coli; settings: Mueller hinton agar
# Procedure: as §1, §2
# H. somnus = experiment: Bacteria separation test from nasal cavity swab; format: in vivo, cattle
# M. bovirhinis = experiment: Bacteria separation test from nasal cavity swab; format: in vivo, cattle
# Proteus vulgaris OX19 = experiment: Minimum inhibition concentration (MIC), agar double dilution method; format: cell-based; settings: Mueller hinton agar
# Procedure: as §1, §2
# ICR mice = experiment: Toxicity test, intravenous or subcutaneous injection; format: in vivo
# [16] = before administration (baseline)
# [17] = probit method from surviving numbers after 7 days, subcutaneous
# [18] = intravenous injection, 0.25 mg/mouse
# [19] = intravenous injection, 0.5 mg/mouse
# [20] = intravenous injection, 1.0 mg/mouse
# [21] = subcutaneous injection, 1.0 mg/mouse
# [22] = subcutaneous injection, 2.0 mg/mouse
# [23] = subcutaneous injection, 3.0 mg/mouse
# [24] = subcutaneous injection, 4.0 mg/mouse
smiles,measurement,setting,value
CC[C@H]1OC(=O)C[C@@H](O)[C@H](C)[C@@H](O[C@@H]2O[C@H](C)C(O)C(N(C)C)C2O)[C@@H](CC=O)C[C@@H](C)C(=O)/C=C/C(C)=C/[C@@H]1CN1CCCCC1 (stereo partly shown),Average clinical score,"[1]; 1 day after completion of administration, cattle, 10 mg/kg subcutaneous",3.3
same,Average clinical score,[1]; 2 days after completion of administration,2.5
same,Average clinical score,[1]; 3 days after completion of administration,2.0
same,Average clinical score,[1]; 4 days after completion of administration,1.8
same,Effective rate (%) in clinical effect,[1]; (remarkably effective + effective case number)/test case number × 100,50%
same,Average symptomatic improvement rate (%),[1]; (score before − score after administration)/score before × 100,75.9%
same,Average clinical score,"[1]; at administration (baseline), cattle, 10 mg/kg subcutaneous",7.5
same,A little effective (%) (case number),[1]; improvement rate 50 to under 70,50 (3) % (case number)
same,Effective (%) (case number),[1]; improvement rate 70 to under 85,33 (2) % (case number)
same,Remarkably effective (%) (case number),[1]; improvement rate 85 to 100,17 (1) % (case number)
same,Ineffective (%) (case number),[1]; improvement rate under 50,0 (0) % (case number)
same,Separation rate (%) at completion (number of animal),P. multocida; at completion,50 (3/6) % (number of animal)
same,Separation rate (%) before administration (number of animal),P. multocida; [16],100 (6/6) % (number of animal)
same,Separation rate (%) before administration (number of animal),M. bovis,33 (2/6) % (number of animal)
same,Separation rate (%) at completion (number of animal),Ureaplasma; at completion,33 (2/6) % (number of animal)
same,Separation rate (%) before administration (number of animal),Ureaplasma; [16],100 (6/6) % (number of animal)
same,MIC,[2],0.78 µg/mL
same,MIC,[3],0.39 µg/mL
same,MIC,[4],0.78 µg/mL
same,MIC,Escherichia coli NIHJ,0.78 µg/mL
same,MIC,[5],6.25 µg/mL
same,MIC,[6],0.10 µg/mL
same,MIC,[7],3.13 µg/mL
same,MIC,[8],0.20 µg/mL
same,MIC,[9],0.78 µg/mL
same,MIC,Serratia marcescens,6.25 µg/mL
same,Surviving number after 7 days/test number,[10]; dose 1 mg/kg subcutaneous one hour after infection,0/10
same,Surviving number after 7 days/test number,[10]; dose 5 mg/kg subcutaneous one hour after infection,1/10
same,Surviving number after 7 days/test number,[10]; dose 10 mg/kg subcutaneous one hour after infection,3/10
same,Surviving number after 7 days/test number,[10]; dose 20 mg/kg subcutaneous one hour after infection,10/10
same,Surviving number after 7 days/test number,[10]; dose 30 mg/kg subcutaneous one hour after infection,10/10
same,ED50 (95% confidence limit),[10]; [17],10.3 mg/kg (7.7-13.4)
same,ED90,[10]; [17],18.3 mg/kg
same,MIC,[11],0.39 µg/mL
same,MIC,S. aureus FDA209P,0.20 µg/mL
same,MIC,[12],0.39 µg/mL
same,MIC,[13],0.39 µg/mL
same,MIC,[14],0.78 µg/mL
same,MIC,[15],0.78 µg/mL
same,Separation rate (%) at completion (number of animal),P. haemolytica; at completion,17 (1/6) % (number of animal)
same,Separation rate (%) before administration (number of animal),P. haemolytica; [16],17 (1/6) % (number of animal)
same,MIC,P. haemolytica 63-39,1.56 µg/mL
same,MIC,E. coli K-12 R-5,>100 µg/mL
same,Separation rate (%) at completion (number of animal),H. somnus; at completion,0 (0/6) % (number of animal)
same,Separation rate (%) before administration (number of animal),H. somnus; [16],0 (0/6) % (number of animal)
same,Separation rate (%) at completion (number of animal),M. bovirhinis; at completion,33 (2/6) % (number of animal)
same,Separation rate (%) before administration (number of animal),M. bovirhinis; [16],67 (4/6) % (number of animal)
CC[C@H]1OC(=O)C[C@@H](O)[C@H](C)[C@@H](O[C@@H]2O[C@H](C)C(O)C(N(C)C)C2O)[C@@H](CCN2CCCCCCC2)C[C@@H](C)C(=O)/C=C/C(C)=C/[C@@H]1CN1CCCCCCC1 (stereo partly shown) [Compound C-8],MIC,[2],0.78 µg/mL
same,MIC,[3],3.13 µg/mL
same,MIC,[4],3.13 µg/mL
same,MIC,Escherichia coli NIHJ,1.56 µg/mL
same,MIC,[5],6.25 µg/mL
same,MIC,[6],0.20 µg/mL
same,MIC,[7],0.78 µg/mL
same,MIC,Proteus vulgaris OX19,6.25 µg/mL
same,MIC,[8],0.78 µg/mL
same,MIC,[9],0.20 µg/mL
same,MIC,Serratia marcescens,12.5 µg/mL
same,Dissection finding,ICR mice; [18],no abnormal finding
same,Surviving number,ICR mice; [18],3/3
same,Dissection finding,ICR mice; [19],no abnormal finding
same,Surviving number,ICR mice; [19],3/3
same,Dissection finding,ICR mice; [20],no abnormal finding
same,Surviving number,ICR mice; [20],3/3
same,Surviving number,"ICR mice; intravenous injection, 1.5 mg/mouse",0/1 (immediate death)
same,Surviving number,"ICR mice; intravenous injection, 2.0 mg/mouse",0/3 (immediate death)
same,Surviving number,"ICR mice; intravenous injection, 4.0 mg/mouse",0/1 (immediate death)
same,Dissection finding,ICR mice; [21],Sores and alopecia at the administration part
same,Surviving number / number of used animals,ICR mice; [21],2/2
same,Dissection finding,ICR mice; [22],Sores and alopecia at the administration part
same,Surviving number / number of used animals,ICR mice; [22],2/2
same,Dissection finding,ICR mice; [23],Sores and alopecia at the administration part
same,Surviving number / number of used animals,ICR mice; [23],2/2
same,Dissection finding,ICR mice; [24],Sores and alopecia at the administration part
same,Surviving number / number of used animals,ICR mice; [24],2/2
same,MIC,[11],1.56 µg/mL
same,MIC,S. aureus FDA209P,0.78 µg/mL
same,MIC,[12],0.39 µg/mL
same,MIC,[13],0.78 µg/mL
same,MIC,[14],1.56 µg/mL
same,MIC,[15],0.39 µg/mL
same,MIC,E. coli K-12 R-5,1.56 µg/mL
